Results: PubChem BioAssay (NCI)
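Cells were grown in 96-well plates and exposed to each compound for 48 hours at five concentrations; endpoints were interpolated linearly between bracketing concentrations, or set to the highest concentration if not reached. The concentration for 50% growth inhibition is given as GI50. TGI marks complete inhibition of growth.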

What was measured:
Assay in all cases: DTP human tumour cell line panel, 48 h
HOP-92 NSCLC = test system: HOP-92 NSCLC
HT29 colon = test system: HT29 colon
LOX IMVI melanoma = test system: LOX IMVI melanoma
MOLT-4 leukemia = test system: MOLT-4 leukemia
OVCAR-5 ovarian = test system: OVCAR-5 ovarian
SF-268 CNS = test system: SF-268 CNS
SF-539 CNS = test system: SF-539 CNS
SW-620 colon = test system: SW-620 colon
TK-10 renal = test system: TK-10 renal
UACC-62 melanoma = test system: UACC-62 melanoma

Row | SMILES | GI50 (HOP-92 NSCLC) | TGI (HOP-92 NSCLC) | GI50 (HT29 colon) | TGI (HT29 colon) | GI50 (LOX IMVI melanoma) | TGI (LOX IMVI melanoma) | GI50 (MOLT-4 leukemia) | TGI (MOLT-4 leukemia) | GI50 (OVCAR-5 ovarian) | TGI (OVCAR-5 ovarian) | GI50 (SF-268 CNS) | TGI (SF-268 CNS) | GI50 (SF-539 CNS) | TGI (SF-539 CNS) | GI50 (SW-620 colon) | TGI (SW-620 colon) | GI50 (TK-10 renal) | TGI (TK-10 renal) | GI50 (UACC-62 melanoma) | TGI (UACC-62 melanoma)
1 | O=C(NC(=S)Nc1ccc(Cl)cc1)c1ccccc1 | 8.63 µM | 68.5 µM | > 100 µM | > 100 µM | > 100 µM | > 100 µM | > 100 µM | > 100 µM | > 100 µM | > 100 µM | 76 µM | > 100 µM | > 90.7 µM | > 100 µM | > 100 µM | > 100 µM | > 100 µM | > 100 µM | > 50.4 µM | > 100 µM
2 | CCOC(CN=c1nc(N(C)C)ss1)OCC |  | 36 µM |  | 17.5 µM |  | 31.2 µM |  | 25.4 µM |  | 44.1 µM |  | 59.8 µM |  | 31.4 µM |  | 25.9 µM |  | 73.5 µM |  | 21.4 µM
3 | C=C1CC[C@@H]2C(C)(C)CCC[C@@]2(C)[C@@H]1Cc1cc(O)ccc1O |  | 10.6 µM |  | 32.6 µM |  | 5.35 µM |  | 9.07 µM |  | 31.3 µM |  | 12.9 µM |  | 3.9 µM |  | 23.8 µM |  | 8.77 µM |  | 22.8 µM
4 | C=C(CN1CCc2ccccc2C1)c1ccc(C(=O)Nc2ccc(N)cc2)cc1 | 0.0854 µM | 12.7 µM | 19.6 µM | 43.2 µM | 17.7 µM | 55.7 µM | 1.93 µM | 53 µM | 29.9 µM | > 100 µM | 23.5 µM | > 100 µM | 19.3 µM | 57.4 µM | 30.5 µM | > 100 µM | 26.3 µM | > 100 µM | 22.1 µM | > 100 µM
5 | O=C1C=Cc2ccccc2/C1=C/c1[nH]c(=O)[nH]c1O | 5.75 µM | 47.8 µM | 4.35 µM | 17.1 µM | 7 µM | > 100 µM | 4.19 µM | > 100 µM | 42.8 µM | > 100 µM | 7.27 µM | > 100 µM | 3.38 µM | 16.8 µM |  |  | 10.5 µM | 85.4 µM | 3.45 µM | > 100 µM
6 | O=C1OC(=O)C2C1C1(c3ccccc3)C(c3ccccc3)=C(c3ccccc3)C2(c2ccccc2)S1=O (stereo not drawn) | > 100 µM | > 100 µM | > 100 µM | > 100 µM | > 100 µM | > 100 µM |  |  | > 100 µM | > 100 µM | > 100 µM | > 100 µM | > 100 µM | > 100 µM | > 100 µM | > 100 µM | > 100 µM | > 100 µM | 49.4 µM | > 100 µM
7 | Cc1ccc2c(N)c(C(=O)N[C@H]3CCc4cc(N5CC6CCC(C5)N6)ccc4C3)sc2n1 | 0.642 µM | 4.08 µM | 0.257 µM | 3.22 µM | 0.0761 µM | 0.405 µM | 0.174 µM | 4.49 µM | 0.47 µM | 3 µM | 0.42 µM | 2.51 µM | 0.531 µM | 2.21 µM | 0.293 µM | 2.13 µM | 0.434 µM | 3.26 µM | 0.709 µM | 3.11 µM
8 | COC(=O)/C(=C\c1c(C)[nH]c2ccccc12)S(=O)(=O)c1ccccc1 | 4.14 µM | 51.2 µM | 5.23 µM | > 100 µM | 1.99 µM | 5.18 µM | 1.9 µM | > 100 µM | 17.4 µM | 38 µM | 3.33 µM | 11.1 µM | 3.4 µM | 11.5 µM | 5.15 µM | 21.9 µM | 8.07 µM | 96.6 µM | 2.77 µM | 13.3 µM
9 | O=C(O)C12C3CCCC1C2CC3 (stereo not drawn) |  | > 100 µM |  | > 100 µM |  | > 100 µM |  | > 100 µM |  | > 100 µM |  | > 100 µM |  | > 100 µM |  |  |  | > 100 µM |  | > 100 µM
10 | CC1NOC(=O)C1N=Nc1ccccc1Cl (stereo not drawn) |  | 54.6 µM |  |  |  | > 100 µM |  |  |  | > 100 µM |  | > 100 µM |  | > 100 µM |  | > 100 µM |  | > 100 µM |  | > 100 µM
11 | Cc1nc2cccc(NCc3ccc(C(=O)NO)cc3)c2c(=O)n1-c1ccccc1 | 1.93 µM | 4.46 µM | 2.81 µM | 11.6 µM | 1.82 µM | 3.35 µM | 2.28 µM | > 100 µM | 2.13 µM | 6.75 µM |  |  | 1.89 µM | 4.05 µM | 1.55 µM | 5.99 µM | 1.76 µM | 6.07 µM |  | 
12 | COc1ccc2ccc([Se]c3ccc4ccc(OC)cc4c3)cc2c1 |  | > 100 µM |  | > 100 µM |  | > 100 µM |  | > 100 µM |  |  |  | > 100 µM |  | > 100 µM |  | > 100 µM |  | > 100 µM |  | > 100 µM
13 | O=c1cc(-c2ccccc2)nc2n1CCN2Cc1ccccc1 | 42.8 µM | > 100 µM | 58.1 µM | > 100 µM | 29.8 µM | > 100 µM | 20.2 µM | 79.5 µM |  |  | 46.9 µM | > 100 µM | 27.8 µM | 73.5 µM | 39.1 µM | > 100 µM | 26.5 µM | 95.7 µM | 19.8 µM | 66.7 µM
14 | CCOC(=O)C(C)c1cc(C2(C)OCCO2)c(C)o1 (stereo not drawn) |  | 97.7 µM |  |  |  | > 100 µM |  | > 100 µM |  | > 100 µM |  | > 100 µM |  | > 100 µM |  | > 100 µM |  | > 100 µM |  | > 100 µM
15 | S=C(N/N=C/c1ccccn1)Nc1ccccn1 | 0.478 µM | 6.23 µM | 3.1 µM | > 100 µM | 0.705 µM | 23.1 µM | 0.467 µM | > 100 µM | 3.86 µM | > 100 µM | 2.29 µM | > 100 µM | 1.81 µM | 9.02 µM | 1.7 µM | > 100 µM | 2.93 µM | > 100 µM |  | 
